Results published in PMC9231250, “Cardio- and Neurotoxicity of Selected Anti-COVID-19 Drugs” (Pharmaceuticals, 2022).
Counter-ions that a name gives are not always drawn. Like-named read-outs stand apart in the source and are kept apart here.

Tests used:
hiPSC-CMs [1] = test: Cardiotoxicity screen, CellTiter-Glo cell viability in hiPSC-derived cardiomyocytes; conditions: 24 h; for IC50: Homo sapiens, Cardiomyocyte, read-out: cardiotoxicity IC50; for cardiotoxicity (in words): hiPSC-CMs, CellTiter-Glo
hiPSC-NEURs [2] = test system: hiPSC-NEURs
hiPSC-NEURs [3] = test: Neurotoxicity screen, CellTiter-Glo cell viability in hiPSC-derived neurons; conditions: for IC50: Homo sapiens, Neuron
hiPSC-CMs [4] = test system: hiPSC-CMs
COVID-19 patients = conditions: cited from earlier work
[5] = test system: Huh7.5 (human epithelial-like) cells; conditions: Huh7.5 cells; cited from earlier work
[6] = test system: Vero (African monkey epithelial) cells; conditions: cited from earlier work
[7] = following the clinical dosing regimen; cited from earlier work
[8] = 24 h, read-out: neurotoxicity IC50
[9] = hiPSC-NEURs, 24 h, CellTiter-Glo

Row | Compound | IC50 (hiPSC-CMs [1]) | neurotoxicity (in words) (hiPSC-NEURs [2]) | IC50 (hiPSC-NEURs [3]; [8]) | cardiotoxicity (in words) (hiPSC-CMs [4]) | in-hospital mortality (COVID-19 patients; COVID-19 patients, 200 mg three times per day) | cardiotoxicity (in words) (hiPSC-CMs [1]) | cell toxicity [5] | cell toxicity [6] | neurotoxicity (in words) (hiPSC-NEURs [3]; [9]) | neurotoxicity (in words) (hiPSC-NEURs [3]; hiPSC-NEURs, 24 h, CellTiter-Glo, listed as Hydroxychloroquine) | further neurotoxicity on addition of azithromycin (hiPSC-NEURs [3]; hiPSC-NEURs, combined with 5 µM or 10 µM azithromycin, 24 h, CellTiter-Glo) | further neurotoxicity on addition of azithromycin (hiPSC-NEURs [2]) | plasma concentration, lower end [7] | plasma concentration, upper end [7] | IC50 (hiPSC-NEURs [3]; read-out: neurotoxicity, individual variability between individuals (lowest)) | adverse effects on the cardiovascular system (COVID-19 patients)
1 | CCOC(=O)c1c(CSc2ccccc2)n(C)c2cc(Br)c(O)c(CN(C)C)c12 [arbidol, arbidol hydrochloride] | 61 µM | Neurotoxic | 42 µM | Cardiotoxic | increased risk of in-hospital mortality | – | – | – | – | – | – | – | – | – | – | –
2 | CCN(CCO)CCCC(C)Nc1ccnc2cc(Cl)ccc12 (stereo not shown) [hydroxychloroquine] | – | – | 52 µM | – | – | not cardiomyocytes | observe toxicity | observe toxicity | toxicity in neurons | Neurotoxic | did not induce further neurotoxicity | – | – | – | – | –
3 | CCN(CC)CCCC(C)Nc1ccnc2cc(Cl)ccc12 (stereo not shown) [chloroquine] | – | Neurotoxic | 71 µM | – | – | – | – | – | – | – | – | did not induce further neurotoxicity | – | – | – | –
4 | CCC(CC)COC(=O)[C@H](C)N[P@](=O)(OC[C@H]1O[C@@](C#N)(c2ccc3c(N)ncnn23)[C@H](O)[C@@H]1O)Oc1ccccc1 [remdesivir] | 51 µM | – | 41 µM | – | – | Cardiotoxic | did not observe cell toxicity | did not observe cell toxicity | Neurotoxic | – | – | – | ≥ 16.7 µM | ≤ 1.7 mM | 3 µM | hypotension, atrial fibrillation rhythm, and sinus bradycardia
